Data on two compounds can be found in patent publication US20210346339A1, “THERAPEUTIC FLAVONOID BASED ANTIVIRAL AGENTS” (priority 2016, published 2021).

The test system of data set [1] is cell culture-derived HCV (HCVcc). The class given is cell-based, Hepatitis C virus.
The subject of a further data set is HCoV-OC43 (VR-1558). Put plainly: Anti coronavirus activity: viral CPE inhibition in Vero 76 cells (microscopy, neutral red). It counts as cell-based. The conditions noted are these: hCoV-OC43 (beta).
The target in another data set is CSNK2A1 (Homo sapiens, UniProt P68400). Nature of the data set: Kinase inhibition assay (HotSpot). The class given is biochemical. The conditions noted are these: 10 μM ATP; read-out: Compound IC50, CSNK2A1. The text has this:
(§1) In vitro profiling of lipid and tyrosine kinases was accomplished using the “HotSpot” assay platform.

The target in the next data set is MNK2 (Homo sapiens, UniProt Q9HBH9). Nature of the data set: Kinase inhibition assay (HotSpot). It counts as biochemical. Conditions: 10 μM ATP; read-out: Compound IC50, MNK2.
From the text: as §1

Another data set deals with AAK1 (Homo sapiens, UniProt Q2M2I8). Put plainly: Kinase inhibition assay (HotSpot). It counts as biochemical. The conditions noted are these: 10 μM ATP; read-out: Compound IC50, AAK1.
Chain of AAK1 (Q2M2I8 whole entry): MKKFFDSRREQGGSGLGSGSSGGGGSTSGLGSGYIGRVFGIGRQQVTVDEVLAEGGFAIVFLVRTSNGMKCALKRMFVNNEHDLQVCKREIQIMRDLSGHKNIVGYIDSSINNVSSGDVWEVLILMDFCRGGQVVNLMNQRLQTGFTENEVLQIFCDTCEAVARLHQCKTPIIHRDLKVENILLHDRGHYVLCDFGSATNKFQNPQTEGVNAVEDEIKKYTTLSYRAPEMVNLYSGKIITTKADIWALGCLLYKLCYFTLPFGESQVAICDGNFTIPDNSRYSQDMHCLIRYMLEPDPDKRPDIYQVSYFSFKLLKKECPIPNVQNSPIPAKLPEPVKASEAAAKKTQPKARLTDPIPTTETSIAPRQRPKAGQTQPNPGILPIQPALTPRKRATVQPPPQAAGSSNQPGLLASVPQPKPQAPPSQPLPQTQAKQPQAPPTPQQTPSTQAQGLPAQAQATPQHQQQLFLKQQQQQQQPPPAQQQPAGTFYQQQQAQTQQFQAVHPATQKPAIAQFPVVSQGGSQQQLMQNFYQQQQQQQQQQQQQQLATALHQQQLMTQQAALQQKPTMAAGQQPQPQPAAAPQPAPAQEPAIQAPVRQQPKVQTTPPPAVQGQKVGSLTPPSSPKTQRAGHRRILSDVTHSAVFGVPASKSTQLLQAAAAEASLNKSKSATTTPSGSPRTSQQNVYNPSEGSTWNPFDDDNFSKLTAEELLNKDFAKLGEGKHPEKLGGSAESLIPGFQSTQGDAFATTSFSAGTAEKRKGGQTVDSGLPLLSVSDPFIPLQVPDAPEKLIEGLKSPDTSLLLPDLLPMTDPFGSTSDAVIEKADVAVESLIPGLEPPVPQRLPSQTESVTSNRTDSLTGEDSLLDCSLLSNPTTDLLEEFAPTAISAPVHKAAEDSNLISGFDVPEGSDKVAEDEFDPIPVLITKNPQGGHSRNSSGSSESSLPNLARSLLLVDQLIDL
From the text: as §1

Another data set concerns the target PI3Kb (Homo sapiens, UniProt P42338). Nature of the data set: Kinase inhibition assay (HotSpot). It counts as biochemical. Conditions: 10 μM ATP; read-out: Compound IC50, PI3Kb.
From the text: as §1

For a further data set, the target named is BIKE (Homo sapiens, UniProt Q9NSY1). Put plainly: Kinase inhibition assay (HotSpot). The class given is biochemical. The conditions noted are these: 10 μM ATP; read-out: Compound IC50, BIKE.
From the text: as §1

Another data set deals with ABL2 (Homo sapiens, UniProt P42684). Put plainly: Kinase inhibition assay (HotSpot). The class given is biochemical. The conditions noted are these: 10 μM ATP; read-out: Compound IC50, ABL2.
Chain of ABL2 (P42684 whole entry): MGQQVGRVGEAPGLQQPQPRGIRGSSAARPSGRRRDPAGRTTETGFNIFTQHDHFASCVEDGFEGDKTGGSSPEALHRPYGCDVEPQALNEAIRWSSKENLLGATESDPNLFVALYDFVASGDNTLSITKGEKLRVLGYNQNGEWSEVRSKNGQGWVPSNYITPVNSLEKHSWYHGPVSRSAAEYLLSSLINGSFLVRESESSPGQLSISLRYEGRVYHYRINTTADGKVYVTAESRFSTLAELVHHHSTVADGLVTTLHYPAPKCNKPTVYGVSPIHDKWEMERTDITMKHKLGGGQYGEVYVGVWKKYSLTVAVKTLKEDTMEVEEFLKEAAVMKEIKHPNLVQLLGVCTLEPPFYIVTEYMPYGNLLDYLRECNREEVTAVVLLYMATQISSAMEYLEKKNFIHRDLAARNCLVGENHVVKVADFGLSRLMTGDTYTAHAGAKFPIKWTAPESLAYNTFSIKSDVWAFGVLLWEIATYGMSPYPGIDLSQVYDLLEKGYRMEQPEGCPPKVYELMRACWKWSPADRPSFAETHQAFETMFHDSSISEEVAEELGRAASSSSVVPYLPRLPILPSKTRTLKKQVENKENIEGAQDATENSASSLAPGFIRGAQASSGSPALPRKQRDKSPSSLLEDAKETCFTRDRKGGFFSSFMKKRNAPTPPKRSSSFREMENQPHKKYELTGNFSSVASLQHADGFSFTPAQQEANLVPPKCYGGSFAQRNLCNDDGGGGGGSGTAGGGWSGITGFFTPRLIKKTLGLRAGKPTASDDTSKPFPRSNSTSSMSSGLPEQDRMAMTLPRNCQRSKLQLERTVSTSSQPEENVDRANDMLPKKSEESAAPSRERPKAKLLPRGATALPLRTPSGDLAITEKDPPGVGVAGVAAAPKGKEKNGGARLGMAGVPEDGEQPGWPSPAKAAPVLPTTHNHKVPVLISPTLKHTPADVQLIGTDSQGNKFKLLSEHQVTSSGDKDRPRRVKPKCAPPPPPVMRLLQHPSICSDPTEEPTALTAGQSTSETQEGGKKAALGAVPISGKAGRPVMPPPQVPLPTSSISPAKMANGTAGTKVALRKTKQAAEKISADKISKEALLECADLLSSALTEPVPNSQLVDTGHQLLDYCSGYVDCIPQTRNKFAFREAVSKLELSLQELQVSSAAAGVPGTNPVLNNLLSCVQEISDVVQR
From the text: as §1

The next data set has as its target CSNK2A2 (Homo sapiens, UniProt P19784). Put plainly: Kinase inhibition assay (HotSpot). It counts as biochemical. The conditions noted are these: 10 μM ATP; read-out: Compound IC50, CSNK2A2.
From the text: as §1

Another data set concerns the target T1, GAK (Homo sapiens, UniProt O14976).
T1 sequence (O14976 1-1311): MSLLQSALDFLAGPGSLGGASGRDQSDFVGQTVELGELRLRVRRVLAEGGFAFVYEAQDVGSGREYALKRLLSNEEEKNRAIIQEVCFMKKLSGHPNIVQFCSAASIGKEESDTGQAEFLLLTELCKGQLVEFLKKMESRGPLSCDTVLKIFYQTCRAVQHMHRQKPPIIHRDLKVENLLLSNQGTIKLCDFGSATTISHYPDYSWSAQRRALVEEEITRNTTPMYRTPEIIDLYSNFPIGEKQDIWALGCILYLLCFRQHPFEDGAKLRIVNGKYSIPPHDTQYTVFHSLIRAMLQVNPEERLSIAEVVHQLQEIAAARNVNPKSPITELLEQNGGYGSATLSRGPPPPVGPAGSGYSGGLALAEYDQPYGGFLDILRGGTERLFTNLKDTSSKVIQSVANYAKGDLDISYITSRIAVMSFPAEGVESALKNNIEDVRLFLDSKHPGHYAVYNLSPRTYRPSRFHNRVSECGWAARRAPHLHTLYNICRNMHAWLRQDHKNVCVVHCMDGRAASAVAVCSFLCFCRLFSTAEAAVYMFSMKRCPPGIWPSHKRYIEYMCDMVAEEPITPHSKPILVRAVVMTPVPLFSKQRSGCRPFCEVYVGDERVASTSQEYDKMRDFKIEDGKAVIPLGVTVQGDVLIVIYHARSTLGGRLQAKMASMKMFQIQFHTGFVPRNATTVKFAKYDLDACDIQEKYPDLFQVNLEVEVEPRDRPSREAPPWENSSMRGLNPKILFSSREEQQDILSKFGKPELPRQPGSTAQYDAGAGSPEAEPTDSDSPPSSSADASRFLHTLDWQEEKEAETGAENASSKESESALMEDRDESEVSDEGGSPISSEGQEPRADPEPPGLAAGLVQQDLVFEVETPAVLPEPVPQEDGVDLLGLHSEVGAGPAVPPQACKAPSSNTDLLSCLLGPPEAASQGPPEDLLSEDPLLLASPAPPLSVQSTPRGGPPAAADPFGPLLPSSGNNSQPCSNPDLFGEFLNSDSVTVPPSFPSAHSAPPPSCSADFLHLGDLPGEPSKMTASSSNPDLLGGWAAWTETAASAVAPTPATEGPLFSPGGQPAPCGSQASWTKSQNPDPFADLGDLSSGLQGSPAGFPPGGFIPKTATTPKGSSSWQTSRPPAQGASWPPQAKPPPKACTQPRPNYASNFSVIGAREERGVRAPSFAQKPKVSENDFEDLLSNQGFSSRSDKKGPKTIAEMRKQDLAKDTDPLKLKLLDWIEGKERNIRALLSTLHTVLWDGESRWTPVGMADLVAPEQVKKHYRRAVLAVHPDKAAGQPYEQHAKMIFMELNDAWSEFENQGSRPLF
Nature of the data set: Kinase inhibition assay (HotSpot). The class given is biochemical. The conditions noted are these: 10 μM ATP; read-out: Compound IC50, GAK.
From the text: as §1

Chain of PI3Kb (P42338 whole entry): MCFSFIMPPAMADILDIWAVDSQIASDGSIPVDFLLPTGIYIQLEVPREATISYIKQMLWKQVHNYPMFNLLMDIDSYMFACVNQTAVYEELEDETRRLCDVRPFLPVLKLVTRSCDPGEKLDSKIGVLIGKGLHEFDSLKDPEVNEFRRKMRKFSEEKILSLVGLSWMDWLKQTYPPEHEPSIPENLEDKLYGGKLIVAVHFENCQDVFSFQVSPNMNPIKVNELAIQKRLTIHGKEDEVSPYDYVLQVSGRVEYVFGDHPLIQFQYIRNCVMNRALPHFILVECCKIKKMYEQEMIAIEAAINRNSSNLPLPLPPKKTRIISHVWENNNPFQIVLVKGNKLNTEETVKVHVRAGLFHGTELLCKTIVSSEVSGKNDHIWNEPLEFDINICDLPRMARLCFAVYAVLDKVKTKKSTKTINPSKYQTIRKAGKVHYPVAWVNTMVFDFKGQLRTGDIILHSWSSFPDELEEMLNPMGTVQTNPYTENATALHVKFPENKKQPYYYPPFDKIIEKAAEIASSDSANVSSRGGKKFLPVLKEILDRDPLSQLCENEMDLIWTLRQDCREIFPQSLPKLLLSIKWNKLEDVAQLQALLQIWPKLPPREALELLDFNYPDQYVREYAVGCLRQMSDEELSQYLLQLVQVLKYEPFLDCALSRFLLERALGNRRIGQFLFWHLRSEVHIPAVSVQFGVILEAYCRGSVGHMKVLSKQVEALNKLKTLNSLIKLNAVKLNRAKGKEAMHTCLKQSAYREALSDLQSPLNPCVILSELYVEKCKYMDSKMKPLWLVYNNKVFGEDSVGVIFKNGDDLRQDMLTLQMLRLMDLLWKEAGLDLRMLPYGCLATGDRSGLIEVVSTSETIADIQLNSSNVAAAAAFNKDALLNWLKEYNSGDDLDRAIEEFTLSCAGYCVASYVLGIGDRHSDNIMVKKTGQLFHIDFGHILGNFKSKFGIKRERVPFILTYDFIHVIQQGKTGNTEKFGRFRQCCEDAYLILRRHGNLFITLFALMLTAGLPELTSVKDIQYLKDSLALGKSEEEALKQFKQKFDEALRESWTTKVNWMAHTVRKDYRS
Chain of PI3Kb (P27986 whole entry partner): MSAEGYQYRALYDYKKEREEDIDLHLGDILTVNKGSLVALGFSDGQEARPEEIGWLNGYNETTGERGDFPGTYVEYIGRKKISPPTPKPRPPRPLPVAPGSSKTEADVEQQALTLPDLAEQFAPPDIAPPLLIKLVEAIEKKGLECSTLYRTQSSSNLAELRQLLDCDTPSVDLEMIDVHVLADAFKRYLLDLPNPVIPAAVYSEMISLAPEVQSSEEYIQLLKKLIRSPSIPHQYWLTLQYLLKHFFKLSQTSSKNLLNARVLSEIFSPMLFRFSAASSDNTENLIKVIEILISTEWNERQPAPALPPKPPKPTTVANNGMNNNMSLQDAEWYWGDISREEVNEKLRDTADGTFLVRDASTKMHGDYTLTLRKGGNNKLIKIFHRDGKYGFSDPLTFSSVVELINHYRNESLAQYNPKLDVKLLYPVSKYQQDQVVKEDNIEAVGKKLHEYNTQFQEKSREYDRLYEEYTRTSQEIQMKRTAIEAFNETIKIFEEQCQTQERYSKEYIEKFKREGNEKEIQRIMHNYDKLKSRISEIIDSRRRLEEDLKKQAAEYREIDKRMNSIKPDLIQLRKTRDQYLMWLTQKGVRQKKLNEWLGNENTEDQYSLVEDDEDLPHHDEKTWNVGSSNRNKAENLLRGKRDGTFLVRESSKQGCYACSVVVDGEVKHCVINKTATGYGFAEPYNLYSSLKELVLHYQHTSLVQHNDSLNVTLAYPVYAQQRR
Chain of CSNK2A2 (P19784 whole entry): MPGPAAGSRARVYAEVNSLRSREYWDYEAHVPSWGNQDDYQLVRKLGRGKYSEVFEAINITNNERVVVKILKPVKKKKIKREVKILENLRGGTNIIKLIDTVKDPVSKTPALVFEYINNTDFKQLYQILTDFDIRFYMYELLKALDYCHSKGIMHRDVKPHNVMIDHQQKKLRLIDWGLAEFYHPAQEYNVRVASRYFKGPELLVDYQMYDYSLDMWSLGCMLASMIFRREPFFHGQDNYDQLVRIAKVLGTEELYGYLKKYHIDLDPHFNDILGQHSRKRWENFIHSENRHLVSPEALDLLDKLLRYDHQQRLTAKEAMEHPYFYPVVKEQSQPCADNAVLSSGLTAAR
Chain of CSNK2A1 (P68400 whole entry): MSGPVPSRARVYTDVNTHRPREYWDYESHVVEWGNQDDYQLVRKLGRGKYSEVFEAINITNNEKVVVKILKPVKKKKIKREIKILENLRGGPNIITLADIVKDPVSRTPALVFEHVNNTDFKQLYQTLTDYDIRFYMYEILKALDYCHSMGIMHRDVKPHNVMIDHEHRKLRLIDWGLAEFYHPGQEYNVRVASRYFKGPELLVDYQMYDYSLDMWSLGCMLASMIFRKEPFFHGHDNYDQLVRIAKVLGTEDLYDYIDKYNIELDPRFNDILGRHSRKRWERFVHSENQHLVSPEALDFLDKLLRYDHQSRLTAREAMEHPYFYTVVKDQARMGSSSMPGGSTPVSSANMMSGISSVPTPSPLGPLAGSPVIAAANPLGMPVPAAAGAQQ

With Human interferon alpha-2b [rIFNa-2b], the EC50 in [1] was 0.63 IU/mL.

The IC50 is the concentration that gives 50% inhibition. As usually defined, the CC50 is the concentration at which the toxic effect on the cells reaches its halfway point. Read a low CC50 as harm at low concentration. Take `COc1cc(-c2cc(=O)c3c(O)cc(O)c(CC=C(C)C)c3o2)ccc1O` [FBL-03G]: the EC50 in the data set with HCoV-OC43 (VR-1558) is 420 nM. Besides, the “SI (CC50/EC50)” value in the data set with HCoV-OC43 (VR-1558) was determined as 6.9. Moreover, the IC50 turned out to be 20 nM at CSNK2A1; 549 nM on MNK2; 4 nM on AAK1; 136 nM on PI3Kb; 258 nM at BIKE; 274 nM on ABL2. The 50% inhibitory concentration (IC50) at CSNK2A2 is 4 nM; at GAK, 8 nM. The CC50 in the data set on Vero 76 cells was 2900 nM.
